Drawing on patent US20260355196A1, “INHIBITORS AND DEGRADERS OF PIP4K PROTEIN” (Larkspur Biosciences, Inc., priority 2023, published 2026), this text covers IC50 for 29 molecules.

For orientation: pIC50 means −log10 of the IC50, conventionally taken in molar units.

pIC50: −log10 of the molar value.

The target in this assay is T1, PIP4K2C (Homo sapiens, UniProt Q8TBX8).
T1 sequence (Q8TBX8 1-421): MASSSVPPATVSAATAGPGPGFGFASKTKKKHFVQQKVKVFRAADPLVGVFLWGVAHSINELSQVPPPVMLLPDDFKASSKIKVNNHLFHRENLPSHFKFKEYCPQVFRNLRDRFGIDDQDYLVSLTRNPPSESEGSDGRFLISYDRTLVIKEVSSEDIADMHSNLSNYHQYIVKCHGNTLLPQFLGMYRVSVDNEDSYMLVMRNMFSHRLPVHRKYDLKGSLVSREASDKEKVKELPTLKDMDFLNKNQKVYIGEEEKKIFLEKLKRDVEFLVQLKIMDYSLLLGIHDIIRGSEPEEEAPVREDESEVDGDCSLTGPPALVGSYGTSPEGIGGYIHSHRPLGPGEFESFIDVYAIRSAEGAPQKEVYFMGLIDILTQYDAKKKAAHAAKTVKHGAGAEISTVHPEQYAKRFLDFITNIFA
Description: Enzyme Binding Assay (KINOMEscan): active site-directed competition binding to an immobilized ligand. Further details: purchased Eurofins DiscoverX, San Diego, CA 87-0007-1094. The conditions noted are these: 11-point dose response, duplicate, top concentration 5 micromolar; read-out: Pip4k2c Kd: IC50. The method, then:
Example B-1: Enzyme Binding Assays (KINOMEscan)
PIP4K2C binding constants disclosed herein were determined using the proprietary Human PIP4K2C binding assay (Catalog number 87-0007-1094, Eurofins DiscoverX, San Diego, CA). This assay measures active site-directed competition binding to an immobilized ligand (see https://doi.org/10.1038/nbt1068, herein incorporated by reference in its entirety). Experiments were conducted using an 11-point dose response curve, in duplicate, with a top starting concentration of 5 micromolar; the Levenberg-Marquardt algorithm was used to fit a Hill equation to dose-response data to calculate IC50 values (see Table 5).
For the molecule `CC(=O)N[C@H]1CC[C@H](Nc2ncc(F)c(-c3cccc(C4CCC(=O)NC4)c3)n2)CC1` (stereo partly drawn) [Compound 631, N-(trans-4-((5-fluoro-4-(3-(6-oxopiperidin-3-yl)phenyl)pyrimidin-2-yl)amino)cyclohexyl)acetamide], the negative-log IC50 (pIC50) was over 6.30.
Then `CC(=O)N1CCC(Nc2ncc(F)c(-c3ccnc(C4(O)CCC4)c3)n2)CC1` [Compound 232, 1-(4-((5-fluoro-4-(2-(1-hydroxycyclobutyl)pyridin-4-yl)pyrimidin-2-yl)amino)piperidin-1-yl)ethan-1-one], with over 6.30; and `NC(=O)[C@H]1CC[C@H](Nc2ncc(F)c(-c3cccc(N4CCOCC4)c3)n2)CC1` [Compound 607, trans-4-((5-fluoro-4-(3-morpholinophenyl)pyrimidin-2-yl)amino) cyclohexane-1-carboxamide], with over 6.30; and `NC(=O)[C@H]1CC[C@H](Nc2ncc(F)c(-c3cccc(C(=O)N4CC[C@H](O)C4)c3)n2)CC1` [Compound 259, trans-(S)-4-((5-fluoro-4-(3-(3-hydroxypyrrolidine-1-carbonyl)phenyl)pyrimidin-2-yl)amino)cyclohexane-1-carboxamide], with over 6.30.
On to `CC(=O)N[C@H]1CC[C@H](Nc2ncc(F)c(-c3cccc(N4CCOCC4=O)c3)n2)CC1` [Compound 267, trans-N-(4-((5-fluoro-4-(3-(3-oxomorpholino)phenyl)pyrimidin-2-yl)amino)cyclohexyl)acetamide], for which the pIC50 was over 6.30.
In the case of `CC(=O)N[C@H]1CC[C@H](Nc2ncc(Cl)c(-c3cnn(-c4ccc(=O)[nH]c4)c3)n2)CC1` [Compound 145, trans-N-((1r,4r)-4-((5-chloro-4-(1-(6-oxo-1,6-dihydropyridin-3-yl)-1H-pyrazol-4-yl)pyrimidin-2-yl)amino)cyclohexyl)acetamide] it was over 6.30; in that of `CC(=O)N[C@H]1CC[C@H](Nc2ncc(F)c(-c3cccc(N4CCCCC4=O)c3)n2)CC1` [Compound 256, trans-N-(4-((5-fluoro-4-(3-(2-oxopiperidin-1-yl)phenyl)pyrimidin-2-yl)amino)cyclohexyl)acetamide], over 6.30.
For the molecule `CNC(=O)[C@H]1CC[C@@H](Nc2ncc(Cl)c(-c3cnn(-c4cc[nH]c(=O)c4)c3)n2)CC1` [Compound 148, cis-(1s,4s)-4-((5-chloro-4-(1-(2-oxo-1,2-dihydropyridin-4-yl)-1H-pyrazol-4-yl)pyrimidin-2-yl)amino)-N-methylcyclohexane-1-carboxamide], the pIC50 is 5.30 to 6.00.
Then `CNC(=O)[C@H]1CC[C@@H](Nc2ncc(Cl)c(-c3cccc(-c4ccc[nH]c4=O)c3)n2)CC1` [Compound 138, cis-(1s,4s)-4-((5-chloro-4-(3-(2-oxo-1,2-dihydropyridin-3-yl)phenyl)pyrimidin-2-yl)amino)-N-methylcyclohexane-1-carboxamide], with over 6.30; and `O=C(CCC1CCNCC1)N1CCC(Nc2ncc(Cl)c(-c3cccc(-c4ccccc4)c3)n2)CC1` [Compound 7, 1-(4-((4-([1,1′-biphenyl]-3-yl)-5-chloropyrimidin-2-yl)amino)piperidin-1-yl)-3-(piperidin-4-yl)propan-1-one], with over 6.30; and `NC(=O)[C@H]1CC[C@@H](Nc2ncc(Cl)c(-c3ccc(F)cc3)n2)CC1` [Compound 25, cis-4-((5-chloro-4-(4-fluorophenyl)pyrimidin-2-yl)amino)cyclohexane-1-carboxamide], with 6.00 to 6.30.
For `CC(=O)N[C@H]1CC[C@H](Nc2ncc(Cl)c(C3CCCN(C(=O)C4CC4)C3)n2)CC1` (stereo partly drawn) [Compound 100, trans-N-(4-((5-chloro-4-(1-(cyclopropanecarbonyl)piperidin-3-yl)pyrimidin-2-yl)amino)cyclohexyl)acetamide], the pIC50 was over 6.30.
Turning to `CC(=O)N[C@H]1CC[C@H](Nc2ncc(Cl)c(-c3ccnc(-c4ccc(F)cc4)c3)n2)CC1` [Compound 142, trans-N-((1r,4r)-4-((5-chloro-4-(2-(4-fluorophenyl)pyridin-4-yl)pyrimidin-2-yl)amino)cyclohexyl)acetamide], the pIC50 is over 6.30.
As to `CC(=O)N1CCC(Nc2ncc(F)c(-c3cccc(-c4ccccc4)c3)n2)CC1` [Compound 611, 1-(4-((4-([1,1′-biphenyl]-3-yl)-5-fluoropyrimidin-2-yl)amino)piperidin-1-yl)ethan-1-one], the pIC50 is over 6.30.
Regarding `CC(=O)N1CCC[C@H](Nc2ncc(Cl)c(-c3cccc(-c4ccc[nH]c4=O)c3)n2)C1` [Compound 152, (S)-3-(3-(2-((1-acetylpiperidin-3-yl)amino)-5-chloropyrimidin-4-yl)phenyl)pyridin-2(1H)-one], the pIC50 was over 6.30.
Then `CNC(=O)[C@H]1CC[C@H](Nc2ncc(Cl)c(-c3ccc(=O)n(C4CC4)c3)n2)CC1` [Compound 106, trans-(1r,4r)-4-((5-chloro-4-(1-cyclopropyl-6-oxo-1,6-dihydropyridin-3-yl)pyrimidin-2-yl)amino)-N-methylcyclohexane-1-carboxamide], with 6.00 to 6.30; and `CC(=O)N1CCC(Nc2ncc(F)c(-c3cccc(N4CCCOC4=O)c3)n2)CC1` [Compound 220, 3-[3-[2-[(1-acetyl-4-piperidyl)amino]-5-fluoro-pyrimidin-4-yl]phenyl]-1,3-oxazinan-2-one], with over 6.30; and `CC(=O)N1CCC[C@H](Nc2ncc(Cl)c(-c3cccc(-c4cccc(=O)[nH]4)c3)n2)C1` [Compound 157, (S)-6-(3-(2-((1-acetylpiperidin-3-yl)amino)-5-chloropyrimidin-4-yl)phenyl)pyridin-2(1H)-one], with over 6.30.
Turning to `CNC(=O)[C@H]1C[C@@H](Nc2ncc(Cl)c(-c3cccc(-n4ccccc4=O)c3)n2)C1` [Compound 94, cis-3-((5-chloro-4-(3-(2-oxopyridin-1 (2H)-yl)phenyl)pyrimidin-2-yl)amino)-N-methylcyclobutane-1-carboxamide], the pIC50 is over 6.30.
In the case of `CNC(=O)[C@H]1CC[C@H](Nc2ncc(Cl)c(-c3cnn(C4CC4)c3)n2)CC1` [Compound 117, trans-(1r,4r)-4-((5-chloro-4-(1-cyclopropyl-1H-pyrazol-4-yl)pyrimidin-2-yl)amino)-N-methylcyclohexane-1-carboxamide], the pIC50 was over 6.30.
Then `CC(=O)N[C@H]1CC[C@H](Nc2ncc(F)c(-c3cccc(-n4ccccc4=O)c3)n2)CC1` [Compound 238, trans-N-[4-[[5-fluoro-4-[3-(2-oxo-1-pyridyl)phenyl]pyrimidin-2-yl]amino]cyclohexyl]acetamide], with over 6.30.
In the case of `CC(=O)N1CCC(Nc2ncc(Cl)c(C3CCN(c4ccccc4)C3)n2)CC1` (centres unmarked) [Compound 30, 1-(4-((5-chloro-4-(1-phenylpyrrolidin-3-yl)pyrimidin-2-yl)amino)piperidin-1-yl)ethan-1-one], the pIC50 was over 6.30.
For the molecule `O=C1CC(Nc2ncc(Cl)c(-c3cccc(-c4ccccc4)c3)n2)CCN1` (centres unmarked) [Compound 15, 4-((4-([1,1′-biphenyl]-3-yl)-5-chloropyrimidin-2-yl)amino)piperidin-2-one], the pIC50 is over 6.30.
For the molecule `CC(=O)N[C@H]1CC[C@H](Nc2ncc(F)c(-c3cccc(-c4ccc(=O)[nH]c4)c3)n2)CC1` [Compound 203, trans-N-(4-((5-fluoro-4-(3-(6-oxo-1,6-dihydropyridin-3-yl)phenyl)pyrimidin-2-yl)amino)cyclohexyl)acetamide], the pIC50 is over 6.30.
On to `CC(=O)N1CCC(Nc2ncc(F)c(-c3cccc(C(=O)N4CC[C@H](O)C4)c3)n2)CC1` [Compound 212, (S)-1-(4-((5-fluoro-4-(3-(3-hydroxypyrrolidine-1-carbonyl)phenyl)pyrimidin-2-yl)amino)piperidin-1-yl)ethan-1-one], for which the pIC50 is over 6.30.
Turning to `CC(=O)N1CC[C@H](Nc2ncc(F)c(-c3cccc(-n4ccccc4=O)c3)n2)C1` [Compound 613, (S)-1-(3-(2-((1-acetylpyrrolidin-3-yl)amino)-5-fluoropyrimidin-4-yl)phenyl)pyridin-2(1H)-one], the pIC50 is over 6.30.
For the molecule `CC(=O)N[C@H]1CC[C@H](Nc2ncc(F)c(-c3ccnc(C(C)(C)O)c3)n2)CC1` [Compound 241, trans-N-(4-((5-fluoro-4-(2-(2-hydroxypropan-2-yl)pyridin-4-yl)pyrimidin-2-yl)amino)cyclohexyl)acetamide], the pIC50 is over 6.30.
Then `CC(=O)N1CCC(Nc2ncc(Cl)c(-c3cccc(-c4ccccc4)c3)n2)CC1` [Compound 23, 1-(4-((4-([1,1′-biphenyl]-3-yl)-5-chloropyrimidin-2-yl)amino)piperidin-1-yl)ethan-1-one], with over 6.30; and `CC(=O)N[C@H]1CC[C@H](Nc2ncc(Cl)c(-c3cccc(-c4ccc(F)cc4)n3)n2)CC1` [Compound 158, trans-N-((1r,4r)-4-((5-chloro-4-(6-(4-fluorophenyl)pyridin-2-yl)pyrimidin-2-yl)amino)cyclohexyl)acetamide], with over 6.30.
